Like-named read-outs stand apart in the source and are kept apart here.

Holding throughout (type): in vivo
In assay [1] the test system is Cabbage Looper (Trichoplusia ni, TRIPNI). As to the kind of experiment: Bioassay on Cabbage Looper (CL), 128-well diet tray assay. As to conditions: Trichoplusia ni. The method in brief: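 Second-instar larvae, one to five per well, were placed on artificial diet surface-treated with 50 μg/cm^2 test molecule applied in 90:10 acetone-water and dried, eight wells per molecule. Trays were covered, vented and held at 25° C., 14:10 light-dark for five to seven days; percent mortality per well was averaged.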

For assay [2], the system named is Yellow Fever Mosquito (Aedes aegypti, AEDSAE). Nature of the assay: Bioassay on Yellow Fever Mosquito (YFM), 96-well plate larval assay. As to conditions: for YFM rating: Yellow Fever Mosquito, 96-well plate larval assay; for YFM (Biological Results, rating): Species YFM (Yellow Fever Mosquito). The procedure, abridged: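 Aedes aegypti larvae (about 1 day old) in liver-powder water were added to plates dispensed from DMSO master plates (4000 ppm stock) diluted with 90:10 water/acetone; six replicate plates per master. Lidded plates were held at room temperature for 3 days, then each well was scored for mortality.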

Assay [3] concerns Beet Armyworm (Spodoptera exigua, LAPHEG). Nature of the assay: Bioassay on Beet Armyworm (BAW), 128-well diet tray assay. The method in brief:
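Artificial diet surface-treated with 50 μg/cm^2 test molecule in 90:10 acetone-water, dried, then infested with one to five second instar larvae per well. Held covered and vented at 25° C., 14:10 light-dark for five to seven days; percent mortality recorded per well and averaged over eight wells.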

Where [4] appears, read: Cabbage Looper, 128-well diet tray assay, read-out: CL rating.
Where [5] appears, read: Beet Armyworm, 128-well diet tray assay, read-out: BAW rating.
[6] abbreviates: Species CL (Cabbage Looper), read-out: CL (Biological Results, rating).
Where [7] appears, read: Species BAW (Beet Armyworm), read-out: BAW (Biological Results, rating).

As to `Nc1cc(NC(=O)c2cc(NC(=O)[C@H]3[C@H](c4ccc(Cl)c(Br)c4)C3(Cl)Cl)ccc2Cl)c(F)cc1F` [F580, N-(5-Amino-2,4-difluorophenyl)-5-((1R,3R)-3-(3-bromo-4-chlorophenyl)-2,2-dichlorocyclopropane-1-carboxamido)-2-chlorobenzamide], the pest or weed control at 50 µg/cm2 in assay [1] (setting [4]) and in assay [3] (setting [5]) was 50 to 100% throughout. In addition, in assay [2], the YFM rating result is recorded as “A (80-100)”.
Consider `Nc1cc(F)c(NC(=O)c2cc(NC(=O)[C@H]3[C@H](c4cc(Cl)c(Cl)c(Cl)c4)C3(Cl)Cl)ccc2Cl)cc1F` [F570, trans-N-(4-Amino-2,5-difluorophenyl)-2-chloro-5-((1R,3R)-2,2-dichloro-3-(3,4,5-trichlorophenyl)cyclopropane-1-carboxamido)benzamide], for which the pest or weed control at 50 µg/cm2 in assay [1] (setting [4]) and in assay [3] (setting [5]) was 50 to 100% each time. The YFM rating entry in assay [2] is given as “A (80-100)”.
Turning to `O=C(Nc1ccc(F)cc1F)c1cc(NC(=O)[C@H]2[C@H](c3ccc(Br)c(Cl)c3)C2(Cl)Cl)ccc1Cl` (relative stereo) [F306, 5-(trans-3-(4-Bromo-3-chlorophenyl)-2,2-dichlorocyclopropane-1-carboxamido)-2-chloro-N-(2,4-difluorophenyl)benzamide], the pest or weed control at 50 µg/cm2 in assay [1] (setting [6]) and in assay [3] (setting [7]) was 50 to 100% in each case. Also, the “YFM (Biological Results, rating)” value in assay [2] is recorded as “A (80-100)”.
As for `CC(=O)N(C(C)=O)c1ccc(NC(=O)c2cc(NC(=O)[C@H]3[C@H](c4cc(Cl)cc(Cl)c4)C3(Cl)Cl)ccc2Cl)c(C#N)c1` (relative stereo) [F469, trans-N-(4-(N-acetylacetamido)-2-cyanophenyl)-2-chloro-5-(2,2-dichloro-3-(3,5-dichlorophenyl)cyclopropane-1-carboxamido)benzamide], the pest or weed control at 50 µg/cm2 in assay [1] (setting [4]) and in assay [3] (setting [5]) was 50 to 100% throughout. Further, the YFM rating entry in assay [2] is “A (80-100)”.
As to `Cn1ccc2c(NC(=O)c3cc(NC(=O)[C@H]4[C@H](c5cc(Cl)cc(Cl)c5)C4(Cl)Cl)ccc3Cl)cccc21` (relative stereo) [F530, 2-Chloro-5-(trans)-(2,2-dichloro-3-(3,5-dichlorophenyl)cyclopropane-1-carboxamido)-N-(1-methyl-1H-indol-4-yl)benzamide], the pest or weed control at 50 µg/cm2 in assay [1] (setting [4]) and in assay [3] (setting [5]) was 50 to 100% throughout. In assay [2], the YFM rating entry was “A (80-100)”.
Take `Cc1ccc(NC(=O)c2cc(NC(=O)[C@H]3[C@H](c4cc(Cl)cc(Cl)c4)C3(Cl)Cl)ccc2Cl)cc1N` (relative stereo) [F205, trans-N-(3-Amino-4-methylphenyl)-2-chloro-5-(2,2-dichloro-3-(3,5-dichlorophenyl)cyclopropane-1-carboxamido)benzamide]: the pest or weed control at 50 µg/cm2 in assay [1] (setting [6]) and in assay [3] (setting [7]) was 50 to 100% throughout. The “YFM (Biological Results, rating)” value in assay [2] is listed as “B (More than 0-Less than 80)”.
As for `Nc1cc(NC(=O)c2cc(NC(=O)[C@H]3[C@H](c4cc(Cl)cc(Cl)c4)C3(Cl)Cl)ccc2Cl)ccc1F` (relative stereo) [F238, trans-N-(3-Amino-4-fluorophenyl)-2-chloro-5-(2,2-dichloro-3-(3,5-dichlorophenyl)cyclopropane-1-carboxamido)benzamide], the pest or weed control at 50 µg/cm2 in assay [1] (setting [6]) and in assay [3] (setting [7]) was 50 to 100% each time. Besides, in assay [2], the “YFM (Biological Results, rating)” value was “A (80-100)”.
For the molecule `O=C(Nc1ccc(F)cc1)c1cc(NC(=O)[C@H]2[C@H](c3cc(Cl)cc(Cl)c3)C2(Cl)Cl)ccc1I` (relative stereo) [F4, trans-5-(2,2-Dichloro-3-(3,5-dichlorophenyl)cyclopropane-1-carboxamido)-N-(4-fluorophenyl)-2-iodobenzamide], the pest or weed control at 50 µg/cm2 in assay [1] (setting [6]) and in assay [3] (setting [7]) was 50 to 100% throughout. For the same molecule, in assay [2], the “YFM (Biological Results, rating)” value is reported as “A (80-100)”.
With `Cc1cc(F)ccc1NC(=O)c1cccc(NC(=O)[C@H]2[C@H](c3cc(Cl)cc(Cl)c3)C2(Cl)Cl)c1` (relative stereo) [F272, trans-3-(2,2-Dichloro-3-(3,5-dichlorophenyl)cyclopropane-1-carboxamido)-N-(4-fluoro-2-methylphenyl)benzamide], the pest or weed control at 50 µg/cm2 in assay [1] (setting [6]) and in assay [3] (setting [7]) was 50 to 100% throughout. Moreover, the “YFM (Biological Results, rating)” value in assay [2] is given as “A (80-100)”.
Regarding `Nc1cccc(NC(=O)c2cc(NC(=O)[C@H]3[C@H](c4cc(Cl)cc(Cl)c4)C3(Cl)Cl)ccc2Cl)c1` (relative stereo) [F201, trans-N-(3-Aminophenyl)-2-chloro-5-(2,2-dichloro-3-(3,5-dichlorophenyl)cyclopropane-1-carboxamido)benzamide], the pest or weed control at 50 µg/cm2 in assay [1] (setting [6]) and in assay [3] (setting [7]) was 50 to 100% each time. For the same molecule, the “YFM (Biological Results, rating)” value in assay [2] is given as “A (80-100)”.
For `C#Cc1cccc(NC(=O)c2cc(NC(=O)C3C(c4cc(Cl)cc(Cl)c4)C3(Cl)Cl)ccc2Cl)c1` (stereo not drawn) [PF124, 2-Chloro-5-(trans)-2,2-dichloro-3-(3,5-dichlorophenyl)cyclopropane-1-carboxamido)-N-(3-ethynylphenyl)benzamide], the pest or weed control at 50 µg/cm2 in assay [1] (setting [4]) and in assay [3] (setting [5]) was 50 to 100% each time. Also, the YFM rating entry in assay [2] was “A (80-100)”.
As for `O=C(Nc1ncc(F)cc1F)c1cc(NC(=O)[C@H]2[C@H](c3cccc(C(F)F)c3)C2(Cl)Cl)ccc1Cl` (relative stereo) [F590, 2-Chloro-5-(trans-2,2-dichloro-3-(3-(difluoromethyl)phenyl)cyclopropane-1-carboxamido)-N-(3,5-difluoropyridin-2-yl)benzamide], the pest or weed control at 50 µg/cm2 in assay [1] (setting [4]) and in assay [3] (setting [5]) was 50 to 100% throughout. Besides, the YFM rating entry in assay [2] is recorded as “A (80-100)”.
For the molecule `O=C(Nc1ccc(F)cc1[N+](=O)[O-])c1cc(NC(=O)[C@H]2[C@H](c3cc(Cl)cc(Cl)c3)C2(Cl)Cl)ccc1Cl` (relative stereo) [F348, trans-2-Chloro-5-(2,2-dichloro-3-(3,5-dichlorophenyl)cyclopropane-1-carboxamido)-N-(4-fluoro-2-nitrophenyl)benzamide], the pest or weed control at 50 µg/cm2 in assay [1] (setting [6]) and in assay [3] (setting [7]) was 50 to 100% each time. The “YFM (Biological Results, rating)” value in assay [2] was “A (80-100)”.
On to `O=C(Nc1ccc(F)cc1)c1cc(NC(=O)[C@H]2[C@H](c3cc(Cl)cc(Br)c3)C2(Cl)Cl)ccc1Cl` (relative stereo) [PF37, 5-(trans-3-(3-Bromo-5-chlorophenyl)-2,2-dichlorocyclopropane-1-carboxamido)-2-chloro-N-(4-fluorophenyl)benzamide], for which the pest or weed control at 50 µg/cm2 in assay [1] (setting [4]) and in assay [3] (setting [5]) was 50 to 100% each time. Besides, the YFM rating result in assay [2] is “B (More than 0-Less than 80)”.
As to `C=Cc1cc(Cl)cc([C@H]2[C@H](C(=O)Nc3ccc(Cl)c(C(=O)Nc4ccc(F)cc4F)c3)C2(Cl)Cl)c1` (relative stereo) [F352, 2-Chloro-5-(trans-2,2-dichloro-3-(3-chloro-5-vinylphenyl)cyclopropane-1-carboxamido)-N-(2,4-difluorophenyl)benzamide], the pest or weed control at 50 µg/cm2 in assay [1] (setting [6]) and in assay [3] (setting [7]) was 50 to 100% each time. For the same molecule, the “YFM (Biological Results, rating)” value in assay [2] is reported as “A (80-100)”.
